In brackets after ≈: the same amount, converted by molar mass.
What was measured:
[1] = Oral bioavailability / pharmacokinetics in Beagle dogs; type: in vivo; details: dog, plasma, pH 7.4, IV bolus, 40 to 50 mg, vehicle 0.1M NaHCO3 pH7.4, read-out: AUC (area under the curve) of IV bolus
Experimental: Briefly, three healthy, research Beagle dogs, aged 4˜10 years and body weight 9˜12 kg were used. The pharmacokinetics experiments have intravenous bolus (IV bolus) and oral groups.
For the IV bolus and oral groups, the dogs received the drugs after fasting for 4 hours, and the blood samples of the dogs were taken before administration. The blood samples were collected at pre-assigned times (10 min, 1 hr, 2 hr, 4 hr, 5 hr, 7 hr and 24 hr) after administration. The concentrations of the drug in plasma were determined with validated high performance liquid chromatography.
The plasma concentration data were analyzed and modeled by the non-compartmental analysis to obtain pharmacokinetics parameters.

[2] = In vitro dissolution testing, USP apparatus Type 2 (paddles); type: physicochemical; details: pH 6.8 phosphate buffer with 0.25% SDS, 900 mL, 75 rpm, 37° C.
Experimental: In vitro dissolution testing was performed using an USP dissolution apparatus Type 2 (paddles) at 75 rpm (250 rpm at infinity) using 900 mL phosphate buffer pH 6.8 with 0.25% w/v SDS as the dissolution medium at 37 0.5° C.

[3] = Solubility in buffers or solutions, LC-MS/MS; type: physicochemical; details: for Solubility (mg/ml): 37° C., 24 hrs
Experimental: The method for measuring the solubilities of the formulations is briefly described. The test formulation was added into indicated buffers or solutions (ddH2O or 0.9% saline, pH 7.4) to the final concentration of 3 mg/mL, followed by sonicating for 30 mins. Next, the mixture was put into 37° C. water bath for 24 hrs. The mixture was mixed well by vortex and 1 mL of mixture was transferred into the 1.5 mL eppendorf tube, followed by centrifuging at 20817 xg for 30 mins. 10 μL of the supernatant was collected, and the concentration of the collected supernatant was determined by LC-MS/MS.

[4] = indicates poor aqueous solubility but good membrane permeability; cited from earlier work

Row | SMILES | AUC [1] | In vitro dissolution ([2]; 0 min) | In vitro dissolution ([2]; 5 min) | In vitro dissolution ([2]; 10 min) | In vitro dissolution ([2]; 15 min) | In vitro dissolution ([2]; 20 min) | In vitro dissolution ([2]; 30 min) | In vitro dissolution ([2]; 45 min) | In vitro dissolution ([2]; 60 min) | In vitro dissolution ([2]; 90 min) | In vitro dissolution ([2]; 120 min) | Solubility (mg/ml) ([3]; H2O (pH 7.0)) | Solubility (mg/ml) ([3]; Saline (pH 7.4)) | solubility at 24 h ([3]; USP pH 6.8 buffer, aqueous buffer, thermodynamic from solid, USP pH 6.8, 37° C.) | Biopharmaceutical Classification System (BCS) class [4]
1 | CC(C)[C@H](Nc1ccc(C(=O)NCCC(=O)O)cc1)c1ccc(-c2nnc(-c3ccccc3)o2)cc1 [ALP001] | 2.18 µg·h/mL | – | – | – | – | – | – | – | – | – | – | – | – | – | –
2 | CCOC(=O)CCNC(=O)c1ccc(N[C@H](c2ccc(-c3nnc(-c4ccccc4)o3)cc2)C(C)C)cc1 [ALP001E] | – | 0.00% | 4.40% | 3.69% | 4.73% | 2.87% | 1.18% | 1.26% | 2.11% | 2.77% | 13.04% | <LOQ | <LOQ | 0.44 µg/mL (≈ 0.858 µM) | Class II
